Assays:
[1] = Flocculation test (20 μl sample material in 1 ml diluent); type: physicochemical
[2] = pH, osmolality, assay and impurities of undiluted batches; impact of buffer strength; type: physicochemical
Description: From the results obtained in Example 4 it follows that the concentration of excipients may be such that the resulting ticagrelor solution is hypertonic. The osmolality and pH of several batches was checked. […] In addition, a screening was conducted on the impact of buffer strength on pH and osmolality.

[3] = 3 months stability study at pH 7, 7.5 and 8 in amber glass vials; type: physicochemical; parameters: Assay: unit not given here; settings: for Acetal impurity / Amine impurity / Assay / Description / Regiomer / Sum impurities >0.05 / Total (impurity) / Triol impurity / pH: amber vials, HPβCD 40% w/w
Description: To optimize the HPβCD concentration and the pH of the solution for intravenous use, a 12 week/3 months stability study was conducted. […] Its stability was tested at regular intervals.
A comparison of stability profile at 3 different pH-7, 7.5 and 8—was carried out as below, the manufacturing process for all 3 formulations was kept constant with buffer strength at 19 mM.

Enterococcus faecalis = settings: ex-vivo; cited from earlier work
[4] = HPβCD 22.5% w/w, 19 mM phosphate buffer pH 7.5
[5] = HPβCD 25.0% w/w, 19 mM phosphate buffer pH 7.5
[6] = HPβCD 27.5% w/w, 19 mM phosphate buffer pH 7.5
[7] = HPβCD 30.0% w/w, 19 mM phosphate buffer pH 7.5
[8] = HPβCD 32.5% w/w, 19 mM phosphate buffer pH 7.5
[9] = phosphate buffer pH 7.5 strength 0.19 mM
[10] = phosphate buffer pH 7.5 strength 5 mM
[11] = phosphate buffer pH 7.5 strength 10 mM
[12] = phosphate buffer pH 7.5 strength 19 mM
[13] = 19 mM pH 7 phosphate buffer, 1 M
[14] = 19 mM pH 7 phosphate buffer, 2 M
[15] = 19 mM pH 7 phosphate buffer, 3 M
[16] = 19 mM pH 7 phosphate buffer, T0
[17] = 19 mM pH 7.5 phosphate buffer, 1 M
[18] = 19 mM pH 7.5 phosphate buffer, 2 M
[19] = 19 mM pH 7.5 phosphate buffer, 3 M
[20] = 19 mM pH 7.5 phosphate buffer, T0
[21] = 19 mM pH 8 phosphate buffer, 1 M
[22] = 19 mM pH 8 phosphate buffer, 2 M
[23] = 19 mM pH 8 phosphate buffer, 3 M
[24] = 19 mM pH 8 phosphate buffer, T0

## CCCSc1nc(N[C@@H]2C[C@H]2c2ccc(F)c(F)c2)c2nnn([C@@H]3C[C@H](OCCO)[C@@H](O)[C@H]3O)c2n1 [ticagrelor, (1S,2S,3R,5S)-3-{7-[(1R,2S)-2-(3,4-difluorophenyl)cyclopropylamino]5-(propylthio)-3H-(1,2,3)triazolo (4,5-D)pyrimidin-3-yl}-5-(2 hydroxyethoxy) cyclopentane-1,2-diol]
[1]; HPβCD 30% w/w, ticagrelor 5 mg/ml
  Flocculation test: passed
[1]; HPβCD 35% w/w, ticagrelor 5 mg/ml
  Flocculation test: passed
[1]; HPβCD 40% w/w, ticagrelor 5 mg/ml
  Flocculation test: passed
[1]; HPβCD 40% w/w, ticagrelor 10 mg/ml
  Flocculation test: passed
[1]; SBECD 40% w/w, ticagrelor 5 mg/ml
  Flocculation test: passed
[2]; [4]
  Assay: 98.15%
  Osmolality undiluted: 392 mOsm/kg
  Total impurities: 0.39%
  pH undiluted: 7.67
[2]; [5]
  Assay: 103.23%
  Osmolality undiluted: 493 mOsm/kg
  Total impurities: 0.41%
  pH undiluted: 7.69
[2]; [6]
  Assay: 104.27%
  Osmolality undiluted: 549 mOsm/kg
  Total impurities: 0.42%
  pH undiluted: 7.69
[2]; [7]
  Assay: 107.64%
  Osmolality undiluted: 638 mOsm/kg
  Total impurities: 0.44%
  pH undiluted: 7.74
[2]; [8]
  Assay: 99.26%
  Osmolality undiluted: 813 mOsm/kg
  Total impurities: 0.41%
  pH undiluted: 7.68
[2]; [9]
  Assay: 102.23%
  Osmolality sample: 809 mOsm/kg
  Total impurities: 0.42%
  pH sample: 7.18
[2]; [10]
  Assay: 100.49%
  Osmolality sample: 703 mOsm/kg
  Total impurities: 0.40%
  pH sample: 7.66
[2]; [11]
  Assay: 102.98%
  Osmolality sample: 724 mOsm/kg
  Total impurities: 0.42%
  pH sample: 7.69
[2]; [12]
  Assay: 102.58%
  Osmolality sample: 758 mOsm/kg
  Total impurities: 0.42%
  pH sample: 7.70
[3]; [13]
  Acetal impurity: 0.05%
  Amine impurity: 0.04%
  Assay: 99.73
  Description: clear
  Regiomer: 0.03%
  Sum impurities >0.05: 0.05%
  Total (impurity): 0.27%
  Triol impurity: 0.02%
  pH: 7.34
[3]; [14]
  Acetal impurity: 0.05%
  Amine impurity: 0.04%
  Assay: 99.81
  Description: clear
  Regiomer: 0.06%
  Sum impurities >0.05: 0.11%
  Total (impurity): 0.34%
  Triol impurity: 0.04%
  pH: 7.34
[3]; [15]
  Acetal impurity: 0.05%
  Amine impurity: 0.06%
  Assay: 98.51
  Description: clear
  Regiomer: 0.11%
  Sum impurities >0.05: 0.22%
  Total (impurity): 0.40%
  Triol impurity: 0.04%
  pH: 7.30
[3]; [16]
  Acetal impurity: 0.05%
  Amine impurity: 0.04%
  Assay: 98.95
  Description: clear
  Regiomer: 0.00%
  Sum impurities >0.05: 0.22%
  Total (impurity): 0.41%
  Triol impurity: 0.05%
  pH: 7.33
[3]; [17]
  Acetal impurity: 0.05%
  Amine impurity: 0.05%
  Assay: 104.47
  Description: clear
  Regiomer: 0.01%
  Sum impurities >0.05: 0.14%
  Total (impurity): 0.32%
  Triol impurity: 0.05%
  pH: 7.50
[3]; [18]
  Acetal impurity: 0.05%
  Amine impurity: 0.05%
  Assay: 102.59
  Description: clear
  Regiomer: 0.04%
  Sum impurities >0.05: 0.15%
  Total (impurity): 0.29%
  Triol impurity: 0.05%
  pH: 7.48
[3]; [19]
  Acetal impurity: 0.05%
  Amine impurity: 0.05%
  Assay: 102.31
  Description: clear
  Regiomer: 0.08%
  Sum impurities >0.05: 0.23%
  Total (impurity): 0.41%
  Triol impurity: 0.04%
  pH: 7.55
[3]; [20]
  Acetal impurity: 0.05%
  Amine impurity: 0.04%
  Assay: 104.27
  Description: clear
  Regiomer: 0.00%
  Sum impurities >0.05: 0.11%
  Total (impurity): 0.31%
  Triol impurity: 0.04%
  pH: 7.40
[3]; [21]
  Acetal impurity: 0.05%
  Amine impurity: 0.05%
  Assay: 105.88
  Description: clear
  Regiomer: 0.01%
  Sum impurities >0.05: 0.09%
  Total (impurity): 0.26%
  Triol impurity: 0.03%
  pH: 8.10
[3]; [22]
  Acetal impurity: 0.05%
  Amine impurity: 0.05%
  Assay: 105.46
  Description: clear
  Regiomer: 0.03%
  Sum impurities >0.05: 0.15%
  Total (impurity): 0.32%
  Triol impurity: 0.05%
  pH: 8.04
[3]; [23]
  Acetal impurity: 0.05%
  Amine impurity: 0.07%
  Assay: 104.46
  Description: clear
  Regiomer: 0.06%
  Sum impurities >0.05: 0.23%
  Total (impurity): 0.37%
  Triol impurity: 0.05%
  pH: 8.03
[3]; [24]
  Acetal impurity: 0.05%
  Amine impurity: 0.04%
  Assay: 103.25
  Description: clear
  Regiomer: 0.00%
  Sum impurities >0.05: 0.25%
  Total (impurity): 0.43%
  Triol impurity: 0.06%
  pH: 8.07
[3]; pH range of 7 to 8
  stability of ticagrelor solution in HPβCD (conclusion): stable
Enterococcus faecalis
  minimal bactericidal concentration: 40 microgram/ml
